In brackets after ≈: the same amount, converted by molar mass.
Columns and labels:
splenocytes = assay: Splenocyte proliferation of immunized mice (MTT); type: in vivo; details: LPS and Con A
Experimental: Spleens were isolated from immunized mice and were processed to single cell suspension. 96 well flat bottom Micro titer plates were seeded with 1×10^5 cells/well with RPMI1640 media. Cells were treated with OVA. Con A (2 μg/mL) and LPS (10 μg/mL) or medium with a final volume of 200 μl. Plates were incubated at 37° C. with 5% CO2 in an incubator. After 48 h of incubation 20 μl of Triazolyl blue Tetrazolium Bromide (MTT) solution was added to each well, incubated for next 4 h. Untransformed MTT was removed from each well by aspirating the supernatant (180 μL) and replaced with DMSO. The absorbance was read at 570 nm after 15 min.
Immunostimulating substances act through specific (antigen-dependent) T lymphocytes, B lymphocytes, and dendritic cells and also through non-specific mechanisms of action (antigen-independent) that involves granulocytes, macrophages, and NK cells. Being a secondary lymphoid organ, spleen contains a heterogeneous population of lymphocytes to examine the immunostimulant activity. However, proliferations of immune cells like T and B cells are the benchmark for immune potentiation. Mice were immunized with or without OVA or in combination with MDP and MDP-ET. Type of immune response in all treated groups was measured with LPS and Con-A splenocyte proliferation assays depicted in Figure: 3. […] This is essential for B cell expansion.

Wistar rats = assay: Maximum Tolerated Dose test; type: in vivo
Experimental: This particular beneficial property was evidenced by Maximum Tolerated Dose test done using rat as an animal model.
Maximum Tolerated Dose test: Wistar rats (n=6, 3M & 3F) were administered intramuscularly (i.m) with MDP-ET containing fixed adjuvant dose of 10, 50 and 100 μg/animal/200 μl in an ascending manner. Animals were observed daily for a period of 14 days for clinical signs & mortality. Body weight was measured daily. Food and water consumed by animals were also monitored daily for any abnormalities & food and water intake per animal was also calculated. Body temperature was measured for every 4 hours up to 24 hrs, later once in daily up to 7 days and then followed by alternate day up to day 14. Rats were sacrificed on day 14 and organs/tissues such as site of injection, spleen, thymus, brain, lungs, Heart, liver, Kidney were collected and done macroscopic examination. […] It indicates rats are tolerable even at high dose (100 μg/animal). Blood was collected between 24-36 hrs were tested for CRP levels, after the injection. Higher (600-1000 μg/ml, normal range 200-550 μg/ml in rats) CRP levels were found at higher dose (100 μg/animal).
However, due to moderate or high levels of IL-6 levels as found in In-vitro pyrogenicity test, it can be concluded that MDP-ET may be pyrogenic at tested high concentration (100 μg/animal), which in turn correlated with high levels of CRP found immediately after giving dose.

[1] = system: rPvRII specific IgG antibody; assay: Endpoint titer of rPvRII specific IgG by ELISA after immunization; type: in vivo, mouse
human NOD2 = target: T1, human NOD2 (Homo sapiens, UniProt Q9HC29); assay: NOD2 specific reporter assay (SEAP, Quanti blue); type: cell-based; details: HEK-Blue Human NOD2 reporter cells, 24-72 hrs, read-out: EC50 (half maximal response) (converted)
T1 construct: host or cells: HEK-Blue Human NOD2 reporter cells (HEK 293)
Experimental: Muramyl dipeptide molecules have the ability to bind to NOD2 receptors that are present on the surface of the immune cells, so as to stimulate immune response. NOD2 (Nucleotide oligomerization domain) receptor is an intracellular pattern recognition receptor (PRRs) recognizes muramyl dipeptide derivatives and stimulates cascade of signaling pathways to induce immune response. […] These cells were prepared by co-transfection of human NOD2 gene and codon-optimized SEAP (secreted embryonic alkaline phosphatase) reporter gene into HEK 293 cells. Upon stimulation of cells with muramyl dipeptide derivative, NFkB gets activated, which inturn secrets SEAP and it was measured in cell supernatant. Experimental details of this in-vitro assay are given as example 2.1.
HEK—Blue Human NOD2 reporter cells (5×10^4/well) were plated and cultured overnight in a humidified CO2 incubator at 37° C. Next day, cells were treated with various concentrations of MDP-ET, (0.001 mg/ml to 1 mg/ml) and cultured for 24-72 hrs. Supernatant was collected and treated with Quanti blue detection reagent at 37° C. for 15-30 min. Absorbance was read at 630 nm. […] To generate dose response curve, highest absorbance shown at tested concentration was taken as 100% response and the least absorbance was taken as 0% response. […]

[2] = system: Total IgG1 and IgG2a antibodies; assay: Total IgG1 and IgG2a in sera of OVA-immunized mice (sandwich ELISA); type: in vivo, BALB/c mice
Experimental: Male BALB/c mice were immunized subcutaneously with OVA 100 μg alone or with OVA 100 μg dissolved in saline containing the MDP or MDP-ET analogues (7.5, 15 or 30 μg) on Days 1 and 15. Sera were collected 2 weeks after the last immunization. Total IgG1 and IgG2a antibodies in the sera were measured by Sandwich ELISA.
Measurement of total IgG subtypes such as IgG1 and IgG2a are useful to assess type immunity produced. In mice, IgG1 is integrated with Th2-type response, while Th1-type response is integrated with the production of IgG2a, IgG2b, and IgG3 antibodies. Antibody subclass is indispensable for complement fixation and provides protection. IgG2a and IgG2b can fix the complement stronger than IgG1. Vaccine adjuvants showing broad subclass distribution is beneficial against pathogens. […] But, it didn't induce much significant IgG1 response i.e., Th2 type, than MDP+OVA group.

J774.2A cells = assay: Cytotoxicity assay (MTT); type: cell-based; details: 24 hrs, read-out: IC50 (50% cell death or toxicity)
Experimental: Details of an assay are as explained in example 2.2.
J774.2A cells (2×10^4/well) were plated and incubated overnight. Next day, cells were treated with various concentrations of MDP-ET (10 fold dilutions with a concentration ranging from 0.005 mg/ml to 0.5 mg/ml & 2 mg/ml) and cultured for 24 hrs. Supernatant was discarded and cells were treated with 100 μl of MTT [3-(4,5-Dimethylthiazol-2-yl)-2,5-Diphenyltetrazolium Bromide] (5 mg/ml) and incubated for 3-4 hrs until formozan crystals were formed. Later, supernatant was discarded and crystals were dissolved with DMSO for 5-10 min. Absorbance was read at 540 nm. FIG. 2 represents cell toxicity effect of MDP-ET. X-axis represents concentration in log scale and Y-axis represents % toxicity.

[3] = system: IgG isotypes (IgG1, IgG2a & IgG3) raised against HBsAg; assay: TH1:TH2 index from HBsAg specific IgG isotypes; type: in vivo, BALB/c mice; details: HBsAg in the presence of MDP-ET (10 & 50 μg/mouse)
Excerpt: It is known that IgG subclasses produced after the immunization against given antigen, primarily determines the function of the antibody or indirectly measures the relative contribution of TH1 versus TH2 type cytokine induction. More specifically, production of IgG1 antibodies induces TH2 type cytokines, whereas production of IgG2a & IgG3 antibodies induces TH1 type cytokines. […] In this context, in the present invention, we determined the levels of IgG isotypes (IgG1, IgG2a & IgG3), raised against HBsAg in the presence or absence of MDP-ET (at 10 μg/mouse & 50 μg/mouse) and calculated TH1:TH2 index then calculated as ([IgG2a+IgG3]/2)/(IgG1). Details of assay protocol as described below as in example 3.1.3. According to such calculation, an index value less than 1 stands for a TH2 polarization; an index value greater than 1 stands for a TH1 polarization.
Analysis of antigen specific IgG antibody subclasses (isotypes namely IgG1 or IgG2a or IgG3) was performed as mentioned in example 3.1.2, except at one step, where goat anti-mouse IgG1 or IgG2a or IgG3 HRP was used at a dilution of 1:5000 (in place of goat anti-mouse IgG) TH1:TH2 index obtained at 10 & 50 μg/mouse of MDP-ET is as shown in FIG. 5c.

[4] = system: HBsAg specific IgG antibody; assay: Endpoint titer of HBsAg specific total IgG by ELISA after immunization; type: in vivo, BALB/c mice; details: for HBsAg specific IgG antibody endpoint titer: i.m. Day 0 & 28, Day 42 sera
Experimental: Female BALB/c mice (6-8 week old, n=6/group) were vaccinated intramuscularly (i.m, at two quadriceps) on Day 0 & Day 28 with vehicle control or Hepatitis B antigen (20 μg/mouse/dose/100 μl, 50 μl per quadricep) with and without MDP-ET (10 μg or 50 μg/mouse/dose/100 μl) diluted in Phosphate buffered saline. Prior to immunization, Hepatitis B surface antigen was mixed with MDP-ET, by gentle agitation (1:1 ratio), under sterile conditions. Mice were bled and euthanized on Day 42. Blood was collected & serum was isolated to evaluate analyze antigen specific total IgG antibody titer (as in example 3.1.2) and antibody subclasses (isotypes namely IgG1 or IgG2a or IgG3, as in example 3.1.3).
Serial dilutions of individual serum samples ([…] ranging from 1:50 to 819200) were used to determine the endpoint titer of antigen specific total IgG antibody titer by ELISA. Details of assay protocol as described below, For analysis of antigen specific antibody titer, hepatitis B surface antigen was suspended in 50 mM carbonate bicarbonate buffer, pH 9.6 and coated at a concentration (lug/ml, 100 μl/well) in 96 well plates and kept at 4° C. for overnight. Next day, plates were washed with washing buffer (PBST-Phosphate buffered saline, pH 7.4 with 0.05% Tween) and blocked with blocking buffer (PBS with 1% BSA) at RT for 1-2 hr. ELISA plates were washed again with wash buffer (PBS, 0.1% Tween™20) and added serially diluted (in PBS, 0.1% BSA, 0.05% Tween™20, 0.02% sodium azide) sera from hyper immunized mice and incubated at RT for 1 hr. After incubation, wells were again washed and added Goat Anti-mouse IgG HRP conjugate antibody at a dilution of 1:5000 & incubated for 1 hr at RT. Later, wells were washed, and developed with OPD (O-phenylene diamine) as a substrate for 15 min. Reaction was stopped using 2N H2SO4. Absorbance was read at 490 nm. Threshold (Mean+3SD) was established by taking the absorbance of negative control (PBS) group, followed by the reactive index (ratio of absorbance at a particular dilution & threshold), so as to determine end point titer. Based on this calculation, highest dilution at which reactive index value[…] was considered as endpoint antibody titer dilution. Antigen specific antibody endpoint titer in the presence & absence of MDP-ET was represented as in FIG. 5a.

[5] = system: OVA-specific IgG antibodies; assay: OVA-specific IgG in sera of immunized mice (indirect ELISA); type: in vivo, BALB/c mice; details: OVA 100 μg alone, s.c. Days 1 and 15, sera 2 weeks after last immunization
Experimental: Male BALB/c mice were immunized subcutaneously with OVA 100 μg alone or with OVA 100 μg dissolved in saline containing analogues (7.5, 15 or 30 μg) on Days 1 and 15. Sera were collected 2 weeks after the last immunization. OVA-specific IgG antibodies in the sera were measured by an Indirect ELISA.

T1 sequence (Q9HC29 whole entry): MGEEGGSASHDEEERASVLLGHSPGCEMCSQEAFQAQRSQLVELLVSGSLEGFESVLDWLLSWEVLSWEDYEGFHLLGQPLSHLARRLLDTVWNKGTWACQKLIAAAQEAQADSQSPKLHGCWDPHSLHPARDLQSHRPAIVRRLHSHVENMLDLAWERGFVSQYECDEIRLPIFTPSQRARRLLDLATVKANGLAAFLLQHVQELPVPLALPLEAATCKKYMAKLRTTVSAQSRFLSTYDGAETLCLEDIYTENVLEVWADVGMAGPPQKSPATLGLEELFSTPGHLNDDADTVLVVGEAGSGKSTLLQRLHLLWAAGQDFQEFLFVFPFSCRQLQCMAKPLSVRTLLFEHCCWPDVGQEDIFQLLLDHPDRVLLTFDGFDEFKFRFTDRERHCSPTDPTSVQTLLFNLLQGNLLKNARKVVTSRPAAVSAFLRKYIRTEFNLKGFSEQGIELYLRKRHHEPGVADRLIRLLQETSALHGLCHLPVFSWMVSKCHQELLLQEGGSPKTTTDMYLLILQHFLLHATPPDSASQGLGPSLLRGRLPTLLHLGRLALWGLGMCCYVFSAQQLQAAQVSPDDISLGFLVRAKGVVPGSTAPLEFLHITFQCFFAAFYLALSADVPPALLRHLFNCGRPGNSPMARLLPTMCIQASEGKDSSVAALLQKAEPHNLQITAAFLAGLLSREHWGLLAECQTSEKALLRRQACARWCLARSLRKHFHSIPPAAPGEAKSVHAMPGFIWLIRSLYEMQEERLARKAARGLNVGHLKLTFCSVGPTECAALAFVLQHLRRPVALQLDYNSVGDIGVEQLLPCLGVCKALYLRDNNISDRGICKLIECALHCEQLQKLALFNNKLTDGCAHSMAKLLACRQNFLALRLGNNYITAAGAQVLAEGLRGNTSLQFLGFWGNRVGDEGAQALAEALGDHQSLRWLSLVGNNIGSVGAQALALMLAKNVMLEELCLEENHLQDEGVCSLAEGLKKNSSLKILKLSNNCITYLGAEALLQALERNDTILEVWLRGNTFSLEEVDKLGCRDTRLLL

CCOC(=O)N[C@H]1C(O)O[C@H](CO)[C@@H](O)[C@@H]1O[C@H](C)C(=O)N[C@@H](C)C(=O)N[C@H](CCC(=O)O)C(N)=O (stereo partly drawn) [MDP-ET, (4R)-5-amino-4-((2S)-2-((2R)-2-(((3R,4R,5S,6R)-3-((ethoxycarbonyl)amino)-2,5-dihydroxy-6-(hydroxymethyl)tetrahydro-2H-pyran-4-yl)oxy)propanamido)propanamido)-5-oxopentanoic acid]
Splenocyte proliferation (splenocytes): inducing the LPS mediated splenocyte proliferation
CRP levels (Wistar rats; 100 μg/animal, blood 24-36 hrs after injection, normal range 200-550 μg/ml in rats): 600 to 1000 µg/mL
tolerated dose (Wistar rats; Wistar rats, i.m., 14 days observation): ≥ 100 μg/rat
CRP levels (Wistar rats; after 14 days): normal
macroscopic examination of organs/tissues (Wistar rats; day 14, site of injection, spleen, thymus, brain, lungs, heart, liver, kidney): No significant lesions or abnormalities
clinical signs (Wistar rats; even at tested high dose (100 μg/animal), 14 days): no significant clinical signs
weight gain (Wistar rats; high dose (100 μg/animal), compared to untreated animals): weight gain is less
mortality (Wistar rats; i.m. 10, 50 and 100 μg/animal, 14 days): no mortality
body temperature (Wistar rats; up to 14 days): no temperature raise
increase of rPvRII specific IgG antibody titer versus rPvRII alone ([1]; MDP-ET 10 μg/mouse): 4 fold
rPvRII specific IgG antibody endpoint titer ([1]; MDP-ET 10 μg/mouse + rPvRII): 51200 dilution
EC50 (human NOD2): 421 nM
Th1:Th2 index from antibody titer of ova specific IgG subclasses ([2]; OVA-immunized mice): 1
IC50 (J774.2A cells): 410 µg/mL (≈ 785 µM)
TH1:TH2 index ([IgG2a+IgG3]/2)/(IgG1) [3]: 10
increase of HBsAg specific IgG antibody titer versus HBsAg alone ([4]; MDP-ET 10 μg/mouse): 4 fold
HBsAg specific IgG antibody endpoint titer ([4]; MDP-ET 10 μg/mouse + HBsAg 20 μg): 51200 dilution
increase of HBsAg specific IgG antibody titer versus HBsAg alone ([4]; MDP-ET 50 μg/mouse): 8 fold
HBsAg specific IgG antibody endpoint titer ([4]; MDP-ET 50 μg/mouse + HBsAg 20 μg): 204800 dilution
increase of humoral response (TH2), dose dependent ([4]; mice vaccinated with HBsAg in the presence of MDP-ET (10 and 50 μg/mouse)): 4-8 fold

B1: OVA: Ovalbumin (OVA) antigen, given alone (protein, UniProt P01012 2-386, looked up)
Ovalbumin: GSIGAASMEFCFDVFKELKVHHANENIFYCPIAIMSALAMVYLGAKDSTRTQINKVVRFDKLPGFGDSIEAQCGTSVNVHSSLRDILNQITKPNDVYSFSLASRLYAEERYPILPEYLQCVKELYRGGLEPINFQTAADQARELINSWVESQTNGIIRNVLQPSSVDSQTAMVLVNAIVFKGLWEKAFKDEDTQAMPFRVTEQESKPVQMMYQIGLFRVASMASEKMKILELPFASGTMSMLVLLPDEVSGLEQLESIINFEKLTEWTSSNVMEERKIKVYLPRMKMEEKYNLTSVLMAMGITDVFSSSANLSGISSAESLKISQAVHAAHAEINEAGREVVGSAEAGVDAASVSEEFRADHPFLFCIKHIATNAVLFFGRCVSP
Log(2) IgG Antibody Titre [5]: 12.64
Log(2) Total IgG1 Antibody Titre ([2]; OVA 100 μg alone): 14.39
Log(2) Total IgG2a Antibody Titre ([2]; OVA 100 μg alone): 11.89
